For 8 molecules, MIC results are on record in ChEMBL document CHEMBL4680060, “Polybasic peptide-levofloxacin conjugates potentiate fluoroquinolones and other classes of antibiotics against multidrug-resistant Gram-negative bacteria” (Medchemcomm, 2019).

Each structure is given as a SMILES string. In brackets after ≈: the same amount, converted by molar mass. A value given as a limit tells only on which side of the number the result lay.

Test [1] deals with Staphylococcus aureus. Put plainly: Antibacterial activity against methicillin-resistant Staphylococcus aureus clinical isolate CAN-ICU 61589 assessed as inhibition of visible growth incubated for 18 hrs by CLSI protocol based microbroth dilution method. In kind it is functional.
For test [2], the system named is Stenotrophomonas maltophilia. Description: Antibacterial activity against Stenotrophomonas maltophilia clinical isolate CAN-ICU 62584 assessed as inhibition of visible growth incubated for 18 hrs by CLSI protocol based microbroth dilution method. Type of test: functional.
A further test deals with Acinetobacter baumannii. Description: Antibacterial activity against Acinetobacter baumannii clinical isolate CAN-ICU 63169 assessed as inhibition of visible growth incubated for 18 hrs by CLSI protocol based microbroth dilution method. In kind it is functional. A general note: Broth dilution looks for growth in wells or tubes with falling amounts of substance.
For another test, the system named is Escherichia coli. Description: Antibacterial activity against Escherichia coli ATCC 25922 assessed as inhibition of visible growth incubated for 18 hrs by CLSI protocol based microbroth dilution method. Type of test: functional.
The subject of test [3] is Staphylococcus aureus. Description: Antibacterial activity against methicillin-resistant Staphylococcus aureus ATCC 33592 assessed as inhibition of visible growth incubated for 18 hrs by CLSI protocol based microbroth dilution method. In kind it is functional.
Test [4] relates to Pseudomonas aeruginosa. Description: Potentiation of levofloxacin-induced antibacterial activity against wild type Pseudomonas aeruginosa PAO1 assessed as levofloxacin MIC measured after 18 hrs by CLSI protocol based microbroth dilution method (reference value: 0.5 ug/ml). In kind it is functional.
A further test has as its system Klebsiella pneumoniae. Put plainly: Antibacterial activity against Klebsiella pneumoniae 116381 assessed as inhibition of visible growth incubated for 18 hrs by CLSI protocol based microbroth dilution method. In kind it is functional.
For test [5], the system named is Staphylococcus aureus. Description: Antibacterial activity against Staphylococcus aureus ATCC 29213 assessed as inhibition of visible growth incubated for 18 hrs by CLSI protocol based microbroth dilution method. Type of test: functional.
The test system of another test is Enterobacter cloacae. Put plainly: Antibacterial activity against Enterobacter cloacae 117029 assessed as inhibition of visible growth incubated for 18 hrs by CLSI protocol based microbroth dilution method. Type of test: functional.
The next test deals with Streptococcus pneumoniae. Description: Antibacterial activity against Streptococcus pneumoniae ATCC 49619 assessed as inhibition of visible growth incubated for 18 hrs by CLSI protocol based microbroth dilution method. Type of test: functional.
The test system of test [6] is Staphylococcus epidermidis. Put plainly: Antibacterial activity against methicillin-susceptible Staphylococcus epidermidis clinical isolate CANWARD-2008 81388 assessed as inhibition of visible growth incubated for 18 hrs by CLSI protocol based microbroth dilution method. In kind it is functional.
Test [7] deals with Pseudomonas aeruginosa. Description: Potentiation of moxifloxacin-induced antibacterial activity against wild type Pseudomonas aeruginosa PAO1 assessed as moxifloxacin MIC measured after 18 hrs by CLSI protocol based microbroth dilution method (reference value: 1 ug/ml). In kind it is functional.
Test [8] deals with Pseudomonas aeruginosa. Put plainly: Antibacterial activity against Pseudomonas aeruginosa ATCC 27853 assessed as inhibition of visible growth incubated for 18 hrs by CLSI protocol based microbroth dilution method. In kind it is functional.
In test [9] the test system is Pseudomonas aeruginosa. Put plainly: Potentiation of ciprofloxacin-induced antibacterial activity against wild type Pseudomonas aeruginosa PAO1 assessed as ciprofloxacin MIC measured after 18 hrs by CLSI protocol based microbroth dilution method (reference value: 0.125 ug/ml). In kind it is functional.
In a further test the test system is Enterococcus faecalis. Put plainly: Antibacterial activity against Enterococcus faecalis ATCC 29212 assessed as inhibition of visible growth incubated for 18 hrs by CLSI protocol based microbroth dilution method. In kind it is functional.
Test [10] relates to Pseudomonas aeruginosa. Put plainly: microbe, parasite or virus in culture. As to conditions: PAO1, 18 h.
Test [11] concerns Pseudomonas aeruginosa. Put plainly: microbe, parasite or virus in culture. As to conditions: PAO1, 18 h. The source holds these as a separate data set.
Test [12] has as its system Pseudomonas aeruginosa. Description: microbe, parasite or virus in culture. To be noted: PAO1, 18 h. The source holds these as a separate data set.

Turning to `C[C@H]1COc2c(N3CCN(C)CC3)c(F)cc3c(=O)c(C(=O)N[C@@H](CCN)C(N)=O)cn1c23`, the MIC was over 128 µg/mL with Staphylococcus aureus [1]; over 128 µg/mL in [2]; over 128 µg/mL in the test with Acinetobacter baumannii; 128 µg/mL (≈ 278 µM) in the test on Escherichia coli; over 128 µg/mL with Staphylococcus aureus [3]; 0.5 µg/mL in the test with Pseudomonas aeruginosa [4]. The MIC in the test on Klebsiella pneumoniae was over 128 µg/mL; with Staphylococcus aureus [5], over 128 µg/mL; in the test with Enterobacter cloacae it was over 128 µg/mL; in the test with Streptococcus pneumoniae, over 128 µg/mL; in [6] it was over 128 µg/mL; with Pseudomonas aeruginosa [7], 1 µg/mL. The MIC in the test with Pseudomonas aeruginosa [8] was over 128 µg/mL; in the test on Pseudomonas aeruginosa [9] it was 0.125 µg/mL; with Enterococcus faecalis it was over 128 µg/mL.
As to `C[C@H]1COc2c(N3CCN(C)CC3)c(F)cc3c(=O)c(C(=O)O)cn1c23.C[C@H]1COc2c(N3CCN(C)CC3)c(F)cc3c(=O)c(C(=O)O)cn1c23.O` [LEVOFLOXACIN], the MIC was over 128 µg/mL with Staphylococcus aureus [1]; 4 µg/mL in test [2]; 1 µg/mL in the test on Acinetobacter baumannii; at most 0.25 µg/mL in the test on Escherichia coli; 16 µg/mL against Pseudomonas aeruginosa [10]; at most 0.25 µg/mL in the test with Staphylococcus aureus [3]. Besides, the MIC in the test with Klebsiella pneumoniae is 128 µg/mL; with Staphylococcus aureus [5] it was at most 0.25 µg/mL; in the test on Enterobacter cloacae it was 0.125 µg/mL; in test [6], at most 0.25 µg/mL; against Pseudomonas aeruginosa [11], 16 µg/mL; in the test with Enterococcus faecalis, 2 µg/mL.
`C[C@H]1COc2c(N3CCN(C)CC3)c(F)cc3c(=O)c(C(=O)N[C@@H](CCC(=O)O)C(=O)N[C@H](CN)CCC(=O)O)cn1c23`: the MIC in the test with Staphylococcus aureus [1] is over 128 µg/mL; in test [2], 16 µg/mL (≈ 26.5 µM); with Acinetobacter baumannii, over 128 µg/mL; in the test on Escherichia coli, 128 µg/mL (≈ 212 µM); with Staphylococcus aureus [3] it was over 128 µg/mL; in the test on Pseudomonas aeruginosa [4], 0.5 µg/mL. For the same molecule, the MIC with Klebsiella pneumoniae is over 128 µg/mL; in the test on Staphylococcus aureus [5], over 128 µg/mL; in the test with Enterobacter cloacae it was over 128 µg/mL; in the test on Streptococcus pneumoniae, over 128 µg/mL; in test [6], over 128 µg/mL; in the test with Pseudomonas aeruginosa [7], 1 µg/mL. Moreover, the results for the MIC with Pseudomonas aeruginosa [8], with Pseudomonas aeruginosa [9] and with Enterococcus faecalis were over 128 µg/mL, 0.125 µg/mL and over 128 µg/mL, respectively.
As for `COc1c(N2C[C@@H]3CCCN[C@@H]3C2)c(F)cc2c(=O)c(C(=O)O)cn(C3CC3)c12` [MOXIFLOXACIN], the values for the MIC with Pseudomonas aeruginosa [12], against Pseudomonas aeruginosa [10] and with Pseudomonas aeruginosa [11] were 8 µg/mL (≈ 19.9 µM), 16 µg/mL (≈ 39.9 µM) and 8 µg/mL (≈ 19.9 µM), respectively.
In the case of `C[C@H]1COc2c(N3CCN(C)CC3)c(F)cc3c(=O)c(C(=O)NCCCCCCCCCCCC(=O)N[C@@H](CCN)C(N)=O)cn1c23`, the MIC with Staphylococcus aureus [1] was 128 µg/mL (≈ 195 µM); in test [2] it was over 128 µg/mL; in the test on Acinetobacter baumannii, over 128 µg/mL; in the test on Escherichia coli it was over 128 µg/mL; in the test on Staphylococcus aureus [3] it was over 128 µg/mL; in the test on Pseudomonas aeruginosa [4], 0.25 µg/mL. Also, the MIC is over 128 µg/mL with Klebsiella pneumoniae; 128 µg/mL (≈ 195 µM) in the test on Staphylococcus aureus [5]; 128 µg/mL (≈ 195 µM) in the test on Enterobacter cloacae; over 128 µg/mL in the test with Streptococcus pneumoniae; 64 µg/mL (≈ 97.3 µM) in test [6]; 1 µg/mL with Pseudomonas aeruginosa [7]. Further, the figures for the MIC in the test with Pseudomonas aeruginosa [8], in the test on Pseudomonas aeruginosa [9] and in the test with Enterococcus faecalis were over 128 µg/mL, 0.063 µg/mL and over 128 µg/mL, respectively.
As to `C[C@H]1COc2c(N3CCN(C)CC3)c(F)cc3c(=O)c(C(=O)N[C@@H](CCN)C(=O)N[C@@H](CCN)C(N)=O)cn1c23`, the MIC in the test with Staphylococcus aureus [1] is over 128 µg/mL; in test [2], over 128 µg/mL; in the test on Acinetobacter baumannii, over 128 µg/mL; in the test with Escherichia coli it was 128 µg/mL (≈ 228 µM); with Staphylococcus aureus [3] it was over 128 µg/mL; in the test on Pseudomonas aeruginosa [4] it was 0.25 µg/mL. In addition, the MIC was over 128 µg/mL with Klebsiella pneumoniae; over 128 µg/mL with Staphylococcus aureus [5]; over 128 µg/mL in the test with Enterobacter cloacae; over 128 µg/mL with Streptococcus pneumoniae; over 128 µg/mL in test [6]; 1 µg/mL in the test on Pseudomonas aeruginosa [7]. In addition, the MIC was over 128 µg/mL with Pseudomonas aeruginosa [8], 0.125 µg/mL in the test with Pseudomonas aeruginosa [9] and over 128 µg/mL in the test on Enterococcus faecalis.
Take `C[C@H]1COc2c(N3CCN(C)CC3)c(F)cc3c(=O)c(C(=O)N[C@H](CN)CCC(=O)O)cn1c23`: the MIC with Staphylococcus aureus [1] is over 128 µg/mL; in [2], over 128 µg/mL; in the test with Acinetobacter baumannii, over 128 µg/mL; with Escherichia coli, over 128 µg/mL; in the test on Staphylococcus aureus [3] it was over 128 µg/mL; with Pseudomonas aeruginosa [4], 0.5 µg/mL. Besides, the MIC was over 128 µg/mL in the test on Klebsiella pneumoniae; over 128 µg/mL in the test with Staphylococcus aureus [5]; over 128 µg/mL in the test on Enterobacter cloacae; over 128 µg/mL in the test on Streptococcus pneumoniae; over 128 µg/mL in [6]; 1 µg/mL in the test with Pseudomonas aeruginosa [7]. Also, the MIC in the test with Pseudomonas aeruginosa [8] is over 128 µg/mL; with Pseudomonas aeruginosa [9], 0.125 µg/mL; in the test with Enterococcus faecalis, over 128 µg/mL.
`O=C(O)c1cn(C2CC2)c2cc(N3CCNCC3)c(F)cc2c1=O` [CIPROFLOXACIN]: the MIC amounted to 32 µg/mL (≈ 96.6 µM) against Pseudomonas aeruginosa [12] and 16 µg/mL (≈ 48.3 µM) with Pseudomonas aeruginosa [11].
